We go through one molecule from patent publication US12630829B2, “Gene encoding cytochrome P450 and use thereof” (KUMIAI CHEMICAL INDUSTRY CO., LTD., priority 2020, dated 2026).

In data set [1] the test system is Arabidopsis thaliana having AK454412 forced expression. Put plainly: Fenquinotrione sensitivity test on MS solid medium, AK454412 forced expression. The conditions noted are these: 10,000 nM in MS solid medium, 22° C., about 10 days, evaluated subjectively. In kind it is in vivo. As to the method: First, a binary vector, pMLH7133-AK454412_for At, for transforming Arabidopsis thaliana was produced. With the pET-22b-AK454412 produced in Example 1 used as a template, PCR was performed using a primer set of pMLH-tplb Xba IF (Fd) and pMLH-tplb Sac IF (Rv) to obtain a DNA fragment in which XbaI/SacI recognition sequence and 15 bases of In-Fusion recognition sequence were added to a terminal of full length CDS sequence of the AK454412 gene. The obtained DNA fragment and pMLH7133 vector, having been digested with the restriction enzymes XbaI/SacI, were linked to each other with In-Fusion HD Cloning Kit (Clontech) to produce a binary vector, pMLH7133-AK454412_for At, for transforming Arabidopsis thaliana (FIG. 8). The obtained construct was introduced into Agrobacterium EHA105 strain by an electroporation method. The transformation of Arabidopsis thaliana was performed by a floral dip method using this recombinant Agrobacterium.
With a sensitivity difference from wild type Arabidopsis thaliana used as an index, it was verified whether or not the created transformant had resistance to fenquinotrione. […] The sensitivity to this drug was evaluated subjectively in accordance with the degree of chlorosis of acting symptom. […]

Data set [2] concerns AK454412 (wheat-derived P450) co-expressed with TaCPR. Put plainly: In vitro metabolism test using co-expression crude enzyme of AK454412 and TaCPR (LC/MS). In kind it is in vitro ADME. The conditions noted are these: 10 μM fenquinotrione, 1 mg crude enzyme, 1 mM β-NADPH, 30° C., 1 hour. On the procedure: A single colony of the recombinant E. coli into which each of the above-described two expression constructs had been introduced was inoculated in 3 ml of LB liquid medium, followed by culturing at 37° C. and 200 rpm overnight. 2.5 mL of the resultant culture fluid was added to 250 mL of TB medium (containing 100 ppm carbenicillin and 50 ppm chloramphenicol) held in a 1 L Erlenmeyer flask, followed by culturing at 37° C. and 200 rpm until an OD600 of about 0.5 to 0.6 was obtained. After the resultant flask was cooled with ice, IPTG and aminolaevulinic acid were added thereto to final concentrations of 1 mM and 0.5 mM, respectively, followed by culturing at 20° C. and 110 rpm. 22 hours after the IPTG induction, the resultant culture fluid was centrifuged (4° C., 15,000 rpm, 1 min). A bacterial cell in the obtained 500 mL of culture fluid was suspended in 35 mL of P450 Buffer [50 mM potassium phosphate buffer (pH 7.3), 20% glycerol, 1 mM EDTA, and 1 mM DTT] to be sonicated, followed by centrifugation at 4° C. and at 6,000×g for 10 minutes. The supernatant was centrifuged at 4° C. and at 100,000×g for 1 hour, and a solution obtained by adding P450 Buffer by 1 mL to the obtained precipitate and homogenizing the resultant with a Teflon homogenizer was used as a co-expression crude enzyme solution for AK454412 and TaCPR. […]

Entries after “also recorded” stand apart in the source; their conditions may differ.

Regarding `COc1ccc(-n2c(=O)c(C(=O)C3C(=O)CCCC3=O)nc3c(Cl)cccc32)cc1` [fenquinotrione], the chlorosis symptom entry in data set [1] is given as “not observed”. Also, the “metabolic degradation of fenquinotrione (production of the demethylated product, LC/MS)” value in data set [2] was “metabolically degrades fenquinotrione to the demethylated product; also recorded: a parent peak of fenquinotrione was reduced, and a peak of the demethylated product appeared”.
